Data on nine compounds can be found in patent publication US7919488B2, “Therapeutic compounds” (Pfizer Inc., priority 2006, dated 2011).

As a reminder, the IC50 is the concentration that gives 50% inhibition.

What all share (type): biochemical
The target in test [1] is T1, recombinant CYP3A4-b5 enzyme (Baculosomes®) (Homo sapiens, UniProt P08684).
T1 construct: purchased Invitrogen (Carlsbad, Calif.)
Nature of the test: Kiapp against recombinant CYP3A4 enzyme (Baculosomes), BFC substrate. The settings on record: recombinant CYP3A4-b5 (Invitrogen), 5 uM BFC, 200 uM NADPH, pre-incubation at least 30 minutes, pH 7.0, room temperature. The method, boiled down: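 Recombinant CYP3A4-b5 Baculosomes were run in 100 mM sodium phosphate pH 7.0 with 5 mM TCEP and 2% DMF at room temperature, with ~30 min pre-incubation. The reaction was started with NADPH (200 uM) and BFC (5 uM), both final. Kiapp came from initial fluorescence velocities over the first 5 min across inhibitor concentrations.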

Test [2] deals with T2, recombinant CYP3A4+b5 enzyme (Supersomes®) (Homo sapiens, UniProt P08684).
T2 construct: purchased BD Biosciences (Woburn, Mass.)
T2 sequence (P08684 2-503 limits assumed): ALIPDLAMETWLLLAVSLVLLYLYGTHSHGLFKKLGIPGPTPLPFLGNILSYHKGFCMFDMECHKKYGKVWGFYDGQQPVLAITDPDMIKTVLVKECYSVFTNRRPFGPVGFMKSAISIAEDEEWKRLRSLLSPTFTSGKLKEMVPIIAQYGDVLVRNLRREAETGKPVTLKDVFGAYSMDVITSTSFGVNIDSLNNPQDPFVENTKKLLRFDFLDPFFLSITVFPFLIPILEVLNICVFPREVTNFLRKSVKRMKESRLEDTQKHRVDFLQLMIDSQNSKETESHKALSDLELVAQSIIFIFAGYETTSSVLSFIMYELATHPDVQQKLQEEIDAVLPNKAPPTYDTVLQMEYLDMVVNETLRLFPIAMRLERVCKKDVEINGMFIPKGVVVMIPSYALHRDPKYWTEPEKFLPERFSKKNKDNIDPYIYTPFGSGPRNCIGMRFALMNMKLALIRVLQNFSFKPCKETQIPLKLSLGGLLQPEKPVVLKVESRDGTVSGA
In words: Kiapp against recombinant CYP3A4 enzyme (Supersomes), BFC substrate. The settings on record: recombinant CYP3A4+b5 (BD Biosciences), 5 uM BFC, 200 uM NADPH, pre-incubation at least 30 minutes, pH 7.0, room temperature. As for the experimental part: 1. Determination of Compound Kiapp
A determination of the Kiapp of the compounds of the invention against recombinant CYP3A4 enzyme was performed as follows. The assay was performed in a 100 mM sodium phosphate buffer pH 7.0, 5 mM TCEP and containing 2% dimethylformamide (final concentration) upon addition of substrate and inhibitor. A typical reaction for the determination of Kiapp values was carried at room temperature in a solid black Costar u-bottom 96-well polypropylene plate. In each well, recombinant CYP3A4 enzyme (5.5 nM or 8 nM, final concentration depending on the commercial source of the enzyme) was pre-incubated in the presence of the inhibitor for at least 30 minutes in the assay buffer. When pre-incubation was completed (˜30 min), the reaction was initiated by adding NADPH (200 uM, final concentration), and 7-benzyloxy-4-(trifluoromethyl)-coumarin (BFC) (5 uM, final concentration). The oxidation of the coumarin substrate was recorded by a 96-well plate reader POLARstar (BMG LABTECH, Offenburg, Germany).
The initial reaction velocities were measured during the first 5 min of the reaction when the release of the fluorescent product is linear with time, in the absence and in the presence of various concentrations of inhibitors. For non-partial & partial inhibitors, the Kiapp values were determined by using the equation for tight-binding inhibitor developed by Morrison, J F (Morrison J F. Biochim Biophys Acta. 1969, 185: 269-86) and by Szedlaseck S E et al. (Szedlascek, S. E., Ostafe, V., Serban, M., and Vlad, M. O. Biochem. J. 1988, 254:311-312), respectively.
The fluorescent substrate BFC was purchased from Sigma (St Louis, Mo.). Two commercial sources of recombinant enzymes were used in this study: recombinant CYP3A4-b5 enzyme (Baculosomes®) was purchased from Invitrogen (Carlsbad, Calif.) and the recombinant CYP3A4+b5 enzyme (Supersomes®) was purchased from BD Biosciences (Woburn, Mass.).

Test [3] has as its target T3, CYP3A4 (Homo sapiens, UniProt P08684).
T3 construct: 0.1 mg/mL human liver microsomes; from tissue; host or cells: human liver microsomes
Nature of the test: IC50 against CYP3A4 by inhibition of testosterone metabolism in human liver microsomes. The settings on record: 0.1 mg/mL human liver microsomes, 25 μM testosterone, 1 mM NADPH, 6-β-OH-testosterone production, eight minutes; read-out: IC50, μM (HLM, testosterone). The gist of the method: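 Testosterone used as substrate, incubated for eight minutes. 6-β-OH-testosterone formation quantified by LC-MS/MS (MRM) as peak area ratio to internal standard against a metabolite standard curve. IC50 derived from inhibition of this metabolism.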
Background: Liver microsomes are a subcellular fraction often used to study metabolism.

Test [4] addresses T3, CYP3A4. In words: IC50 against CYP3A4 by inhibition of midazolam metabolism in human liver microsomes. The note with it: 0.1 mg/mL human liver microsomes, 2 μM midazolam, 1 mM NADPH, 1-hydroxymidazolam production, eight minutes; read-out: IC50, μM (HLM, midazolam). The method, boiled down:
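Human liver microsomes (0.1 mg/mL) incubated 8 min with 2 μM midazolam and 1 mM NADPH in 100 mM potassium phosphate, pH 7.4. 1-Hydroxymidazolam quantified by LC-MS/MS (MRM) as peak area ratio to internal standard against a metabolite standard curve.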

A value given as a limit tells only on which side of the number the result lay.

T1 sequence (P08684 whole entry): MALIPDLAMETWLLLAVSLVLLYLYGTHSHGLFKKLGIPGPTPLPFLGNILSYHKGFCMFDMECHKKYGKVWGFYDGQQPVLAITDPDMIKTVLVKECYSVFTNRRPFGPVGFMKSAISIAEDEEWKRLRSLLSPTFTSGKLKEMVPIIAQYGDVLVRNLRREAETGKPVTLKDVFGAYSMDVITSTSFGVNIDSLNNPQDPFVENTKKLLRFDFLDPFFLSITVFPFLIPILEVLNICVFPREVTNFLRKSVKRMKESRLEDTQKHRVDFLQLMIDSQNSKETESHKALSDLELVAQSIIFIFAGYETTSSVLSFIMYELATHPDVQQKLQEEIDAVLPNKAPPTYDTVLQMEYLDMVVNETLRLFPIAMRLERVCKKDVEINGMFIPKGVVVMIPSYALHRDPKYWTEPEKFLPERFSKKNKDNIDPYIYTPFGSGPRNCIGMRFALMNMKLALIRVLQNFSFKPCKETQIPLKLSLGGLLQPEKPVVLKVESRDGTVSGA
T3 sequence (P08684 whole entry): as above

Regarding `O=C(Cn1nc(-c2ccncc2)cc1Cc1ccc(F)cc1)N1CC(N2CCOCC2)C1` [Example 121, 4-(1-{[5-(4-fluorobenzyl)-3-pyridin-4-yl-1H-pyrazol-1-yl]acetyl}azetidin-3-yl)morpholine], the Ki in test [1] was determined as 0.0978 µM; in test [2], 0.0136 µM. The IC50 in test [3] was found to be 0.088 µM; in test [4], 0.045 µM.

Turning to `CNC(=O)NC1CN(C(=O)Cn2nc(-c3ccncc3)cc2Cc2ccc(F)cc2)C1` [Example 126, 1-(1-{[5-(4-fluorobenzyl)-3-pyridin-4-yl-1H-pyrazol-1-yl]acetyl}azetidin-3-yl)-3-methylurea], the Ki in test [1] amounted to 0.196 µM; in test [2], 0.031 µM. Also, the IC50 in test [3] came out at 0.059 µM; in test [4] it was 0.034 µM.

Turning to `CN(C)[C@H]1CCN(C(=O)Cn2nc(-c3ccncc3)cc2Cc2ccc(F)cc2)C1` [Example 73, (3S)-1-{[5-(4-fluorobenzyl)-3-pyridin-4-yl-1H-pyrazol-1-yl]acetyl}-N,N-dimethylpyrrolidin-3-amine], the Ki in test [1] is 0.211 µM; in test [2] it was 0.0339 µM. Besides, the IC50 in test [3] was determined as 0.0435 µM; in test [4], 0.018 µM.

For the compound `O=C(Cn1nc(-c2ccncc2)cc1Cc1ccc(F)cc1)N1CCC(N2CCOCC2)CC1` [Example 137, 4-(1-{[5-(4-fluorobenzyl)-3-pyridin-4-yl-1H-pyrazol-1-yl]acetyl}piperidin-4-yl)morpholine], the Ki was 0.0129 µM in test [1] and 0.0036 µM in test [2]. Also, the values for the 50% inhibitory concentration (IC50) in test [3] and in test [4] were 0.031 µM and 0.0101 µM, respectively.

For the compound `CC(C)NC(=O)NC1CCN(C(=O)Cn2nc(-c3ccncc3)cc2Cc2ccc(F)cc2)CC1` [Example 17, N-(1-{[5-(4-fluorobenzyl)-3-pyridin-4-yl-1H-pyrazol-1-yl]acetyl}piperidin-4-yl)-N′-isopropylurea], the values for the Ki in test [1] and in test [2] were 0.0667 µM and 0.0231 µM, respectively. Further, the IC50 in test [3] amounted to 0.035 µM; in test [4], 0.0115 µM.

As for `CC(C)(CN1CCOCC1)NC(=O)Cn1nc(-c2c[nH]nn2)cc1Cc1ccc(F)cc1` [Example 50, N-(1,1-dimethyl-2-morpholin-4-ylethyl)-2-[5-(4-fluorobenzyl)-3-(1H-1,2,3-triazol-4-yl)-1H-pyrazol-1-yl]acetamide], the Ki in test [1] amounted to 0.729 µM; in test [2], 0.389 µM. Besides, the half-maximal inhibitory concentration (IC50) in test [3] was 0.168 µM; in test [4], 0.132 µM.

`CC(=O)N(C)C1CCN(C(=O)Cn2nc(-c3c[nH]cn3)cc2Cc2ccc(F)cc2)CC1` [Example 122, N-(1-{[5-(4-fluorobenzyl)-3-(1H-imidazol-4-yl)-1H-pyrazol-1-yl]acetyl}piperidin-4-yl)-N-methylacetamide]: the Ki amounted to 0.482 µM in test [1] and 0.178 µM in test [2]. In addition, the IC50 in test [3] is > 0.75 µM; in test [4], 0.62 µM.

Consider `CS(=O)(=O)NC1CCN(C(=O)Cn2nc(-c3ccncc3)cc2Cc2ccc(F)cc2)CC1` [Example 19, N-(1-{2-[5-(4-fluorobenzyl)-3-pyridin-4-yl-1H-pyrazol-1-yl]acetyl}piperidin-4-yl)methanesulfonamide], for which the Ki in test [1] worked out at 0.128 µM; in test [2] it was 0.0057 µM. Besides, the values for the IC50 in test [3] and in test [4] were 0.033 µM and 0.0138 µM, respectively.

On to `CNC(=O)N(C)C1CCN(C(=O)Cn2nc(-c3ccncc3)cc2Cc2ccc(F)cc2)C1` (stereo not drawn) [Example 129, 1-(1-{[5-(4-fluorobenzyl)-3-pyridin-4-yl-1H-pyrazol-1-yl]acetyl}pyrrolidin-3-yl)-1,3-dimethylurea], for which the Ki turned out to be 0.312 µM in test [1] and 0.017 µM in test [2]. Moreover, the values for the IC50 in test [3] and in test [4] were 0.066 µM and 0.022 µM, respectively.
